Assay results as given in article PMC11249646, “Small-Molecule Disruptors of the Interaction between Calcium- and Integrin-Binding Protein 1 and Integrin αIIbβ3 as Novel Antiplatelet Agents” (ACS Pharmacology & Translational Science, 2024).
Like-named read-outs stand apart in the source and are kept apart here.

Biological target: T1, CIB1 and αIIb interaction (CIB1-GST : F-αIIb peptide) (Homo sapiens, UniProt Q99828)
T1 construct: made in house; host or cells: BL-21 plus RIL cells (E. coli)
T1 sequence (Q99828 1-191): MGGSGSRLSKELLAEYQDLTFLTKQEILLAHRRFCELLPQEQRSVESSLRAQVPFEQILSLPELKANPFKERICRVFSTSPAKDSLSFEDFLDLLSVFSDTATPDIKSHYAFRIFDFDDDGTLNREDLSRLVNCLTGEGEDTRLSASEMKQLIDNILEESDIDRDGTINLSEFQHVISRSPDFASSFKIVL
Assay: FP assay, 1536-well qHTS format (primary and confirmatory screen)
Assay type: binding

[1] = qHTS primary screen hits, Table S2, negative = inhibition
[2] = qHTS primary screen hits, Table S2, negative sign = inhibitory curve
[3] = qHTS primary screen hits, Table S2, read-out: IC50
[4] = qHTS primary screen hits, Table S2, negative sign = inhibitory curve, several classes where COUNT > 1
[5] = qHTS FP screen hits, Table S2, negative = inhibition
[6] = qHTS FP screen hits, Table S2, read-out: IC50
[7] = qHTS primary screen of LOPAC/NPACT libraries, negative = inhibition
[8] = qHTS primary screen of LOPAC/NPACT libraries, negative sign = inhibitory curve
[9] = qHTS primary screen of LOPAC/NPACT libraries, read-out: IC50

SMILES | Efficacy (%) [1] [%] | IC50 [3] [µM] | Efficacy (%) [7] [%] | Curve Class [8] | IC50 [9] [µM] | further results
CCCCC1(C2CCCC2)Cc2cc(OCC(=O)O)c(Cl)c(Cl)c2C1=O (stereo in doubt) [NCGC00093872-03] | -41 | 44.7 |  |  |  | Curve Class [2]: -2.2
CN1CCN(c2ncc3nc(-c4cn(C)c5ccccc45)c(=O)n(Cc4cccs4)c3n2)CC1.O=C(O)C(F)(F)F [NCGC00012779-02] | -27 | 50.1 |  |  |  | Curve Class [4]: -2.4
CN(C)c1ccc(C(=C2C=CC(=[N+](C)C)C=C2)c2ccccc2)cc1.CN(C)c1ccc(C(=C2C=CC(=[N+](C)C)C=C2)c2ccccc2)cc1.O=C(O)C(=O)O.O=C([O-])C(=O)O.O=C([O-])C(=O)O [NCGC00013058-02] | -53 | 100 |  |  |  | Curve Class [4]: -3
O=S1(=O)OC(c2ccc(O)cc2)(c2ccc(O)cc2)c2ccccc21 [NCGC00013109-03] | -72 | 44.7 |  |  |  | Curve Class [2]: -2.4
Oc1ccc(Cl)cc1Sc1cc(Cl)ccc1O [NCGC00013679-06] | -30 | 50.1 |  |  |  | Curve Class [4]: -2.4
CCc1oc2ccccc2c1C(=O)c1cc(Br)c(O)c(Br)c1 [NCGC00013895-18] |  |  |  |  |  | Efficacy (%) [5]: -51%; Curve Class (qHTS FP screen hits, Table S2, one class per curve where COUNT > 1, negative sign = inhibitory curve): -2.2; IC50 [6]: 34.9 µM
O=S(=O)(O)c1ccc2cc(/N=N/c3cc(S(=O)(=O)O)c4cccnc4c3O)ccc2c1 [NCGC00013917-09] | -57 | 14.3 |  |  |  | 
O=C(O)CCc1nc(-c2ccccc2)c(-c2ccccc2)o1 [NCGC00014711-11] |  |  | -11 | -2.4 | 89.1 | 
CC[C@@]1(O)C(=O)OCc2c1cc1n(c2=O)Cc2cc3c(CN(C)C)c(O)ccc3nc2-1 [NCGC00014925-07] | -147 | 24.5 |  |  |  | 
Cn1c(=O)c2[nH]c(-c3ccc(S(=O)(=O)O)cc3)nc2n(C)c1=O [NCGC00015000-05] |  |  | -28 | -2.2 | 50.1 | 
C=CCn1c(=O)c2c(nc(-c3ccc(S(=O)(=O)O)cc3)n2C)n(C)c1=O [NCGC00015008-05] |  |  | -20 | -2.2 | 25.1 | 
NC1(C(=O)O)CCc2cc(C(=O)O)ccc21 (centres unmarked) [NCGC00015024-06] |  |  | -25 | -2.2 | 56.2 | 
Nc1ccc2c3c(cccc13)C(=O)NC2=O [NCGC00015035-07] | -70 | 2.5 |  |  |  | Curve Class [2]: -1.2
Nc1nc(N)c2nc(CNc3ccc(C(=O)NC(CCC(=O)O)C(=O)O)cc3)cnc2n1 (centres unmarked) [NCGC00015038-09] | -49 | 39.8 |  |  |  | Curve Class [2]: -2.2
COc1cc(NS(C)(=O)=O)ccc1Nc1c2ccccc2nc2ccccc12.Cl [NCGC00015113-03] |  |  | -25 | -2.2 | 56.2 | 
CCN1CCc2nc(N)oc2CC1.Cl [NCGC00015131-04] |  |  | -13 | -2.4 | 39.8 | 
O=[N+]([O-])c1cccc2c(Br)n[nH]c12 [NCGC00015143-10] |  |  | -16 | -2.4 | 79.4 | 
C[N+](C)(C)CC(=O)O.[Cl-] [NCGC00015150-04] | -24 | 56.2 |  |  |  | Curve Class [4]: -2.4
Cl.Cl.NC(CO)C(=O)NNCc1ccc(O)c(O)c1O (centres unmarked) [NCGC00015163-09] | -50 | 50.1 |  |  |  | Curve Class [4]: -2.2
CN1CCN(c2nc3cc(C(F)(F)F)ccc3n3cccc23)CC1.O=C(O)/C=C\C(=O)O [NCGC00015180-05] | -17 | 44.7 |  |  |  | Curve Class [4]: -2.2
N#Cc1cc2nc([O-])c([O-])nc2cc1[N+](=O)[O-].[Na+].[Na+] [NCGC00015198-04] | -48 | 35.5 |  |  |  | Curve Class [2]: -2.2
COc1ccc2c(c1)c(CC(=O)O)c(C)n2Cc1ccc(Cl)cc1 [NCGC00015217-05] | -44 | 39.8 |  |  |  | Curve Class [2]: -2.2

SMILES | Efficacy (%) [1] [%] | IC50 [3] [µM] | Efficacy (%) [7] [%] | Curve Class [8] | IC50 [9] [µM] | further results
COc1ccc2c(c[n+](C)c3c4cc5c(cc4ccc23)OCO5)c1OC [NCGC00015225-07] |  |  |  |  |  | Efficacy (%) [5]: -30%; IC50 [6]: 24.6 µM
Clc1ccccc1C(c1ccccc1)(c1ccccc1)n1ccnc1 [NCGC00015251-09] |  |  | -14 | -2.4 | 20 | 
O=c1[nH]c2cc([N+](=O)[O-])c([N+](=O)[O-])cc2[nH]c1=O [NCGC00015319-06] | -48 | 31.6 |  |  |  | Curve Class [2]: -2.2
O=c1ccc2ccc(O)c(O)c2o1 [NCGC00015349-05] |  |  | -13 | -2.4 | 70.8 | 
CCCCCCCCCCCCCCC[C@H](O)[C@@H](N)CO [NCGC00015362-05] | -110 | 100 |  |  |  | Curve Class [4]: -2.3
O=c1oc(Cl)c(Cl)c2ccccc12 [NCGC00015369-06] |  |  | -37 | -2.2 | 31.6 | 
CCCCCCCCCCC/C=C\C(C)(C)/C=C\CCCC(=O)O [NCGC00015371-07] |  |  | -30 | -2.4 | 56.2 | 
CN(N=O)c1cc(O)ccc1O [NCGC00015372-04] | -50 | 50.1 |  |  |  | Curve Class [2]: -2.2
CNC[C@H](O)c1ccc(O)c(O)c1 [NCGC00015417-04] | -32 | 70.8 |  |  |  | Curve Class [2]: -2.4
Cc1cc(O)c2c(c1)C(=O)c1cc(O)cc(O)c1C2=O [NCGC00015420-08] | -31 | 10 |  |  |  | Curve Class [2]: -1.2
CCOC(=O)Nc1ccc(NCc2ccc(F)cc2)nc1N.O=C(O)/C=C\C(=O)O [NCGC00015451-04] |  |  | -53 |  | 39.8 | 
CCOC(=O)C1=C(C)NC(C)=C(C(=O)OC)C1c1cccc(Cl)c1Cl (centres unmarked) [NCGC00015455-08] |  |  | -26 | -2.2 | 50.1 | 
COc1ccc(Cl)cc1C(=O)NCCc1ccc(S(=O)(=O)NC(=O)NC2CCCCC2)cc1 [NCGC00015467-16] |  |  | -14 | -2.4 | 31.6 | 
CN(C)c1cc2c(Nc3ccc4c(cnn4Cc4ccccc4)c3)ncnc2cn1 [NCGC00015468-06] |  |  | -28 | -2.4 | 56.2 | 
COc1ccc(NC(=O)c2ccc(-c3ccc(-c4noc(C)n4)cc3C)cc2)cc1N1CCN(C)CC1.Cl [NCGC00015476-05] |  |  | -19 | -2.2 | 17.8 | 
CC(C)(Sc1ccc(CCN(CCCCC2CCCCC2)C(=O)NC2CCCCC2)cc1)C(=O)O [NCGC00015480-08] |  |  | -28 | -1.4 | 12.6 | 
NC(Cc1cc(O)c(O)cc1O)C(=O)O (centres unmarked) [NCGC00015503-06] |  |  |  |  |  | Curve Class: -2.1; Efficacy (%): -97%; IC50 (IC50 [μM]): 35.5 µM
O=C1Nc2ccccc2/C1=C1/Nc2ccccc2/C1=N\O [NCGC00015545-07] |  |  | -18 | -1.2 | 3.5 | 
O=C1NC(c2cccc([N+](=O)[O-])c2)=CCN1c1ccccc1O [NCGC00015571-05] | -18 | 50.1 |  |  |  | Curve Class [4]: -2.2
O=C1Cc2c([nH]c3ccc(Br)cc23)-c2ccccc2N1 [NCGC00015582-06] |  |  | -19 | -1.4 | 20 | 
Ic1ccccc1CNC1C2CCN(CC2)C1C(c1ccccc1)c1ccccc1.O=C(O)C(=O)O (centres unmarked) [NCGC00015587-03] |  |  | -20 | -3 | 63.1 | 
